Assay results as given in patent US5618812A, “Benzodiazepine derivatives” (Merck Sharp & Dohme, Ltd., priority 1992, dated 1997).
pIC50: −log10 of the molar value. Counter-ions that a name gives are not always drawn. Like-named read-outs stand apart in the source and are kept apart here.

Assays:
CCK-B = target: T1, CCK-B (Cavia porcellus, UniProt H0VZC5); test: displacement of specific 125I-CCK from guinea pig brain (CCK-B receptor binding)
T1 construct: guinea pig brain (CCK-B); from tissue; host or cells: guinea pig brain
T1 sequence (H0VZC5 1-426): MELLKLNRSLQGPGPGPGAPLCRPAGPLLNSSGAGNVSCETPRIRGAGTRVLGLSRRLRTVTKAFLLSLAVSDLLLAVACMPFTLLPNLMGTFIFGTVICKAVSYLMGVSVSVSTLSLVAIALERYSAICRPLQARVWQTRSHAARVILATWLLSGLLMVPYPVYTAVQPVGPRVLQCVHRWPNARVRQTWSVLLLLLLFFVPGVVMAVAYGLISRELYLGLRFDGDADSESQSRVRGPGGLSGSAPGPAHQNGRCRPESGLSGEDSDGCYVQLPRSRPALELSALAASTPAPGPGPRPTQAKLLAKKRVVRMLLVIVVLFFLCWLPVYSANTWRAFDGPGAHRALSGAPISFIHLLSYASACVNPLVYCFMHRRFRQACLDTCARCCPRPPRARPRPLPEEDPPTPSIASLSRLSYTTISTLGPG
Description: (§1) The CCK-A and CCK-B antagonising activity of the compounds described herein was evaluated using the assays described in published European patent application no. 0514133. The method essentially involves determining the concentration of the test compound required to displace 50% of the specific ^125 I-CCK from rat pancreas (CCK-A) or guinea pig brain (CCK-B). The data in Table 1 were obtained for compounds of the Examples.

CCK-A = target: T2, CCK-A (Rattus norvegicus, UniProt P30551); test: biochemical; type: binding; details: rat pancreas (CCK-A), 125I-CCK
T2 sequence (P30551 1-444): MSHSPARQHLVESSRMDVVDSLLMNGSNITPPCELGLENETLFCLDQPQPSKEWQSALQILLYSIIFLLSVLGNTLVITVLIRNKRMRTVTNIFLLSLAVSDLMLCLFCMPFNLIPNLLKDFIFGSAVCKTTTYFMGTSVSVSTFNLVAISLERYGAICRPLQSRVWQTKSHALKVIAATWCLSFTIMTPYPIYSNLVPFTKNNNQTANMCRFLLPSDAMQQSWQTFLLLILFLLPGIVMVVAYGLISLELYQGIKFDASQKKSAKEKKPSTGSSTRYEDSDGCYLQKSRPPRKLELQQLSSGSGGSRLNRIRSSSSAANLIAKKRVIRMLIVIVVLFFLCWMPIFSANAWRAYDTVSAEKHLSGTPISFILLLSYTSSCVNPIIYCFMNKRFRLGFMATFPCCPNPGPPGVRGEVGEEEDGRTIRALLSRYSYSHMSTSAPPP
Description: as §1, with “(CCK-B).” for “(CCK-B). The data in Table 1 were obtained for compounds of the Examples.”

[1] = read-out: CCK RECEPTOR BINDING RESULTS IC50 125I-CCK Brain
[2] = read-out: CCK RECEPTOR BINDING RESULTS IC50 125I-CCK Pancreas
[3] = CCK RECEPTOR BINDING RESULTS IC50 125I-CCK Brain

pIC50 (CCK-B; [1])	pIC50 (CCK-A; [2])	Structure (SMILES)	pIC50 (CCK-B; [3])	pIC50 (CCK-A; CCK RECEPTOR BINDING RESULTS IC50 125I-CCK Pancreas)
7.83	6.14	CCCN1C(=O)C(NC(=O)Nc2cccc(C)c2)N=C(N2CCC3(CC2)OCCO3)c2ccccc21 (racemic) [Example 1, N-[3(R,S)-2,3-Dihydro-5-(1,4-dioxa-8-azaspiro[4,5]decan-8-yl)-2-oxo-1-propyl-1H-1,4-benzodiazepin-3-yl]N'-[3-methylphenyl]urea]	–	–
8.69	6.06	CCCN1C(=O)C(NC(=O)Nc2cccc(C)c2)N=C(N2CCC(=O)CC2)c2ccccc21 (racemic) [Example 2, N-[3(R,S)-2,3-Dihydro-2-oxo-5-(4-oxopiperidin-1-yl)-1-propyl-1H-1,4-benzodiazepin-3-yl]N'-[3-methylphenyl] urea]	–	–
7.94	6.26	CCCN1C(=O)C(NC(=O)Nc2cccc(C)c2)N=C(N2CCC(NCC(F)(F)F)CC2)c2ccccc21 (racemic) [Example 3, N-[3(R,S)-2,3-Dihydro-2-oxo-1-propyl-5-(4-[1,1,1-trifluoroethylamine]piperidin-1-yl)-1H-1,4-benzodiazepin-3-yl]N'-[3-methylphenyl]urea]	–	–
8.92	7.46	CN1C(=O)C(NC(=O)Nc2ccc3c(c2)CCC3)N=C(N2CCC(C)(C)CC2)c2ccccc21 (racemic) [Example 4, N-[3(R,S)-2,3-Dihydro-5-(4,4-dimethylpiperidin-1-yl)-1-methyl-2-oxo-1H-1,4-benzodiazepin-3-yl]N'-[indan-5-yl]urea]	–	–
8.79	8.11	Cc1cccc(NC(=O)NC2N=C(N3CCC(C)CC3)c3ccccc3N(C)C2=O)c1 (racemic) [Example 7, N-[3(R,S)-2,3-Dihydro-1-methyl-5-(4-methylpiperidin-1-yl)-2-oxo-1H-1,4-benzodiazepin-3-yl]N'-[3-methylphenyl]urea]	–	–
9.68	8.05	Cc1cccc(NC(=O)NC2N=C(N3CCC(C)(C)CC3)c3ccccc3N(C)C2=O)c1 (racemic) [Example 9, N-[3(R,S)-2,3-Dihydro-5-(4,4-dimethylpiperidin-1-yl)-1-methyl-2-oxo-1H-1,4-benzodiazepin-3-yl]N'-[3-methylphenyl]urea]	–	–
8.37	7.60	COC1CCN(C2=NC(NC(=O)Nc3cccc(C)c3)C(=O)N(C)c3ccccc32)CC1 (racemic) [Example 11, N-[3(R,S)-2,3-Dihydro-5-(4-methoxypiperidin-1-yl)-1-methyl-2-oxo-1H-1,4-benzodiazepin-3-yl]N'-[3-methylphenyl]urea]	–	–
9.70	7.57	CCCN1C(=O)C(NC(=O)Nc2cccc(C)c2)N=C(N2CCC(C)CC2)c2ccccc21 (racemic) [Example 17, N-[3(R,S)-2,3-Dihydro-5-(4-methylpiperidin-1-yl)-2-oxo-1-propyl-1H-1,4-benzodiazepin-3-yl]N'-[3-methylphenyl]urea]	–	–
7.48	7.82	Cc1cccc(NC(=O)NC2N=C(N3CCC(C)(C)CC3)c3ccccc3N(CC(F)(F)F)C2=O)c1 (racemic) [Example 27, N-[3(R,S)-2,3-Dihydro-5-(4,4,dimethylpiperidin-1-yl)-2-oxo-1-(2,2,2-trifluoroethyl)-1H-1,4-benzodiazepin-3-yl]N'-(3-methylphenyl) urea]	–	–
–	–	Cc1cccc(NC(=O)NC2N=C(N3CC4CCC(CC4)C3)c3ccccc3N(C)C2=O)c1 (racemic) [Example 31, N-[3(R,S)-5-(3-Azabicyclo[3,2,2]nonan-3-yl)-2,3-dihydro-1-methyl-2-oxo-1H-1,4-benzodiazepin-3-yl]-N'-[3-methylphenyl]urea]	9.28	7.70
9.15	8.10	Cc1cccc(NC(=O)NC2N=C(N3CC4CCC(C4)C3)c3ccccc3N(C)C2=O)c1 (racemic) [Example 38, N-[3(R,S)-5-(3-Azabicyclo[3,2,1]octan-3-yl)-2,3-dihydro-1-methyl-2-oxo-1H-1,4-benzodiazepin-3-yl]-N'-[3-methylphenyl]urea]	–	–
8.26	7.55	Cc1cccc(NC(=O)NC2N=C(N3CC4CCC3CC4)c3ccccc3N(C)C2=O)c1 (racemic) [Example 51, N-[3(R,S)-5-(2-Azabicyclo[2,2,2]octan-2-yl)-2,3-dihydro-1-methyl-2-oxo-1H-1,4-benzodiazepin-3-yl]-N'-[3-methylphenyl]urea]	–	–
–	–	Cc1cccc(NC(=O)NC2N=C(N3CC4CCC(CC4)C3)c3ccccc3N(C)C2=O)c1 (single isomer, unassigned; (-)) [Example 33, (-)-N-[5-(3-Azabicyclo[3,2,2]nonan-3-yl)-2,3-dihydro-1-methyl-2-oxo-1H-1,4-benzodiazepin-3-yl]-N'-[3-methylphenyl]urea Hydrochloride]	10.00	–

Structure (SMILES)	pIC50 (CCK-B; [1])	pIC50 (CCK-A; [2])	pIC50 (CCK-B; [3])	pIC50 (CCK-A; CCK RECEPTOR BINDING RESULTS IC50 125I-CCK Pancreas)
CN1C(=O)C(NC(=O)Nc2cccc(F)c2)N=C(N2CC3CCC(CC3)C2)c2ccccc21 (racemic) [Example 35, N-[3(R,S)-5-(3-Azabicyclo[3,2,2]nonan-3-yl)-2,3-dihydro-1-methyl-2-oxo-1H-1,4-benzodiazepin-3-yl]-N'-[3-fluorophenyl]urea]	–	7.40	9.09	–
CN1C(=O)C(NC(=O)Nc2cccc(C(F)(F)F)c2)N=C(N2CC3CCC(CC3)C2)c2ccccc21 (racemic) [Example 42, N-[3(R,S)-5-(3-Azabicyclo[3,2,2]nonan-3-yl)-2,3-dihydro-1-methyl-2-oxo-1H-1,4-benzodiazepin-3-yl]-N'-[3-trifluoromethyl-phenyl]urea]	–	7.09	8.75	–
CCCN1C(=O)C(NC(=O)Nc2cccc(C)c2)N=C(N2CC3CCC(C2)N3C)c2ccccc21 (racemic) [Example 43, N-[3(R,S)-2,3-Dihydro-5-(8-methyl-3,8-diazabicyclo[3,2,1]octan-3-yl)-2-oxo-1-propyl-1H-1,4-benzodiazepin-3-yl]-N'-[3-methylphenyl]urea]	–	< 5.52	7.32	–
Cc1ccc(NC(=O)NC2N=C(N3CC4CCC(CC4)C3)c3ccccc3N(C)C2=O)cc1F (racemic) [Example 44, N-(3(R,S)-5-(3-Azabicyclo[3,2,2]nonan-3-yl)-2,3-dihydro-1-methyl-2-oxo 1H-1,4-benzodiazepin-3-yl]-N'-[3-fluoro-4-methylphenyl]urea]	–	7.15	9.28	–
CN1C(=O)C(NC(=O)Nc2cccc(I)c2)N=C(N2CC3CCC(CC3)C2)c2ccccc21 (racemic) [Example 47, N-[3(R,S)-5-(3-Azabicyclo[3,2,2]nonan-3-yl)-2,3-dihydro-1-methyl-2-oxo-1H-1,4-benzodiazepin-3-yl]-N'-[3-iodophenyl]urea]	–	7.58	9.00	–
CN1C(=O)C(NC(=O)Nc2ccccc2)N=C(N2CC3CCC(CC3)C2)c2ccccc21 (racemic) [Example 50, N-[3(R,S)-5-(3-Azabicyclo[3,2,2]nonan-3-yl)-2,3-dihydro-1-methyl-2-oxo-1H-1,4-benzodiazepin-3-yl]-N'-[phenyl]urea]	–	8.00	8.41	–
Cc1cc(NC(=O)NC2N=C(N3CC4CCC(CC4)C3)c3ccccc3N(C)C2=O)ccc1F (racemic) [Example 52, N-[3(R,S)-5-(3-Azabicyclo[3,2,2]nonan-3-yl)-2,3-dihydro-1-methyl-2-oxo-1H-1,4-benzodiazepin-3-yl)-N'-[4-fluoro-3-methylphenyl]urea]	–	7.73	9.60	–
